In patent publication US20230142844A1, “USE OF 1,9-DECANEDIOL IN RETARDING UREA HYDROLYSIS” (INSTITUTION OF SOIL SCIENCE, CHINESE ACADEMY OF SCIENCES, priority 2021, published 2023):

Tested on: urea hydrolysis in soil
Experiment: Soil culture test: effect of inhibitors applied with urea on urea hydrolysis (urea nitrogen and ammonia nitrogen contents in soil)
Settings: for contents of ammonia nitrogen in soil (NH4^+-N) / contents of urea nitrogen in soil (Urea-N): flooded paddy soil, 25° C.; for inhibition of urea hydrolysis during the culture period / effect on retarding the hydrolysis efficiency of urea: result in words; for effect on retarding the hydrolysis efficiency of urea: applied with urea to flooded paddy soil
Method: 1.1 experimental soil: the type of experimental soil is paddy soil, and the texture is sandy loam soil. It is collected from 0-20 cm topsoil of experimental field in Yingtan City, Jiangxi Province (28° 15′N, 116° 55′E). It is sieved by 2 millimeters (mm), mixed, and reserved.
1.2 test reagent: 1,9-decanediol is customized in market, and a structural formula thereof is C10H22O2. Nitrification inhibitor is dicyandiamide (DCD, a structural formula thereof is C2H4N4) is purchased from Sigma.
1.3 experimental treatment: experimental setting as follows: urea treatment (U); nitrification inhibitor DCD +urea treatment including: DCD-20 mg/kg soil; 1,9-decanediol+urea treatment in the soil including: 1,9-D-100 mg/kg, 1,9-D-200 mg/kg, 1,9-D-500 mg/kg, and 1,9-D-1000 mg/kg. Each treatment is repeated three times. The amount of nitrogen applied is […] nitrogen per kilogram soil.
After the experimental soil is weighed into 100 milliliters (mL) plastic pipe, distilled water is evenly added, and the soil water content is adjusted to 60% of the maximum field water capacity. Then the plastic pipe is sealed with sealing film and uniform holes are pricked to keep air flowing, and pre-cultured in a 25° C. incubator for three days.
After the pre-culture, according to the different experimental treatments, the corresponding urea and inhibitors (1,9-decanediol and DCD) are weighed to form a mixed solution, the mixed solution is evenly applied to soil, then distilled water is added to maintain a flooded state, and cultured at 25° C. […]. The contents of urea nitrogen and ammonia nitrogen in soil are measured on the 1st, 2nd, 3rd, 5th, and 7th days of culture to evaluate the effects of different inhibitors on nitrogen transformation.

[1] = 1,9-decanediol 100 mg/kg in soil + urea, 1 d of culture
[2] = 1,9-decanediol 100 mg/kg in soil + urea, 2 d of culture
[3] = 1,9-decanediol 100 mg/kg in soil + urea, 3 d of culture
[4] = 1,9-decanediol 100 mg/kg in soil + urea, 5 d of culture
[5] = 1,9-decanediol 100 mg/kg in soil + urea, 7 d of culture
[6] = 1,9-decanediol 200 mg/kg in soil + urea, 1 d of culture
[7] = 1,9-decanediol 200 mg/kg in soil + urea, 2 d of culture
[8] = 1,9-decanediol 200 mg/kg in soil + urea, 5 d of culture
[9] = 1,9-decanediol 200 mg/kg in soil + urea, 7 d of culture
[10] = 1,9-decanediol 500 mg/kg in soil + urea, 1 d of culture
[11] = 1,9-decanediol 500 mg/kg in soil + urea, 2 d of culture
[12] = 1,9-decanediol 500 mg/kg in soil + urea, 3 d of culture
[13] = 1,9-decanediol 500 mg/kg in soil + urea, 5 d of culture
[14] = 1,9-decanediol 500 mg/kg in soil + urea, 7 d of culture
[15] = 1,9-decanediol 1000 mg/kg in soil + urea, 1 d of culture
[16] = 1,9-decanediol 1000 mg/kg in soil + urea, 2 d of culture
[17] = 1,9-decanediol 1000 mg/kg in soil + urea, 3 d of culture
[18] = 1,9-decanediol 1000 mg/kg in soil + urea, 5 d of culture
[19] = 1,9-decanediol 1000 mg/kg in soil + urea, 7 d of culture
[20] = DCD 20 mg/kg soil + urea, 1 d of culture
[21] = DCD 20 mg/kg soil + urea, 2 d of culture
[22] = DCD 20 mg/kg soil + urea, 3 d of culture
[23] = DCD 20 mg/kg soil + urea, 5 d of culture
[24] = DCD 20 mg/kg soil + urea, 7 d of culture

CC(O)CCCCCCCCO (stereo not drawn) [1,9-D, 1,9-decanediol]
contents of ammonia nitrogen in soil (NH4^+-N) [1]: 171.9 ± 8.1a | contents of urea nitrogen in soil (Urea-N) [1]: 10.1 ± 0.7c | contents of ammonia nitrogen in soil (NH4^+-N) [2]: 176.8 ± 1.2c | contents of urea nitrogen in soil (Urea-N) [2]: 3.7 ± 1.2cd | contents of ammonia nitrogen in soil (NH4^+-N) [3]: 197.7 ± 7.3ab | contents of urea nitrogen in soil (Urea-N) [3]: 3.4 ± 0.5 days | contents of ammonia nitrogen in soil (NH4^+-N) [4]: 187 ± 8.5 mg/kg | contents of urea nitrogen in soil (Urea-N) [4]: 3.3 ± 0.2c | contents of ammonia nitrogen in soil (NH4^+-N) [5]: 221.7 ± 2.4ab | contents of urea nitrogen in soil (Urea-N) [5]: 2.9 ± 0.5bc | contents of ammonia nitrogen in soil (NH4^+-N) [6]: 150.8 ± 2.8b | contents of urea nitrogen in soil (Urea-N) [6]: 15.2 ± 0.1c | contents of ammonia nitrogen in soil (NH4^+-N) [7]: 173.7 ± 1.9c | contents of urea nitrogen in soil (Urea-N) [7]: 9.1 ± 0.51b | contents of ammonia nitrogen in soil (NH4^+-N) (1,9-decanediol 200 mg/kg in soil + urea, 3 d of culture): 195 ± 9b | contents of ammonia nitrogen in soil (NH4^+-N) [8]: 213.9 ± 3.3ab | contents of urea nitrogen in soil (Urea-N) [8]: 2.8 ± 0.5c | contents of ammonia nitrogen in soil (NH4^+-N) [9]: 221.4 ± 4.4ab | contents of urea nitrogen in soil (Urea-N) [9]: 4.2 ± 1.4ab | contents of ammonia nitrogen in soil (NH4^+-N) [10]: 51 ± 1.1c | contents of urea nitrogen in soil (Urea-N) [10]: 115.6 ± 13b | contents of ammonia nitrogen in soil (NH4^+-N) [11]: 160 ± 6.2 mg/kg | contents of urea nitrogen in soil (Urea-N) [11]: 11.7 ± 0.4b | contents of ammonia nitrogen in soil (NH4^+-N) [12]: 180.8 ± 6.3c | contents of urea nitrogen in soil (Urea-N) [12]: 10.5 ± 0.7b | contents of ammonia nitrogen in soil (NH4^+-N) [13]: 207.3 ± 2.1b | contents of urea nitrogen in soil (Urea-N) [13]: 6.1 ± 0.6a | contents of ammonia nitrogen in soil (NH4^+-N) [14]: 217.3 ± 3.3b | contents of urea nitrogen in soil (Urea-N) [14]: 3.4 ± 0.7bc | contents of ammonia nitrogen in soil (NH4^+-N) [15]: 46.3 ± 2.1c | contents of urea nitrogen in soil (Urea-N) [15]: 139 ± 7.2a | contents of ammonia nitrogen in soil (NH4^+-N) [16]: 92.9 ± 0.4e | contents of urea nitrogen in soil (Urea-N) [16]: 73.4 ± 3.8a | contents of ammonia nitrogen in soil (NH4^+-N) [17]: 152 ± 1.4 mg/kg | contents of urea nitrogen in soil (Urea-N) [17]: 14.8 ± 1.7a | contents of ammonia nitrogen in soil (NH4^+-N) [18]: 196.7 ± 2c | contents of urea nitrogen in soil (Urea-N) [18]: 5 ± 0.5b | contents of ammonia nitrogen in soil (NH4^+-N) [19]: 203.2 ± 7c | contents of urea nitrogen in soil (Urea-N) [19]: 5.4 ± 0.5a | inhibition of urea hydrolysis during the culture period (addition of 500 mg/kg): can significantly inhibit the urea hydrolysis | inhibition of urea hydrolysis during the culture period (addition of 1000 mg/kg): can significantly inhibit the urea hydrolysis | effect on retarding the hydrolysis efficiency of urea: can retard the hydrolysis efficiency of urea | efficiencies of retarding urea hydrolysis from large to small (ranking of treatments (1,9-D 100-1000 mg/kg, DCD 20 mg/kg soil)): 1, 9-D-1000>1, 9-D-500>1, 9-D-200>1, 9-D-100>DCD

N#CN=C(N)N [DCD, dicyandiamide, reference compound]
contents of ammonia nitrogen in soil (NH4^+-N) [20]: 176.9 ± 5.5a | contents of urea nitrogen in soil (Urea-N) [20]: 4.5 ± 0.4c | contents of ammonia nitrogen in soil (NH4^+-N) [21]: 183.6 ± 4b | contents of urea nitrogen in soil (Urea-N) [21]: 1.6 ± 0.3 days | contents of ammonia nitrogen in soil (NH4^+-N) [22]: 203.1 ± 1.6ab | contents of urea nitrogen in soil (Urea-N) [22]: 1.4 ± 0.2e | contents of ammonia nitrogen in soil (NH4^+-N) [23]: 208.4 ± 1.6b | contents of urea nitrogen in soil (Urea-N) [23]: 1.2 ± 0.1 days | contents of ammonia nitrogen in soil (NH4^+-N) [24]: 217.9 ± 4.3b | contents of urea nitrogen in soil (Urea-N) [24]: 2.9 ± 0.4bc | effect on retarding the hydrolysis efficiency of urea: no effect
